This note sets out measurements from US11459375B2, “Cyclic peptides for the treatment of Graves' disease” (advanceCOR GmbH, priority 2017, dated 2022).

Holding throughout (format): in vivo, BALB/c mice
Experiment [1] concerns Ad-TSHR-immunized mice. The experiment in a line: serum thyroxin (T4) levels in Graves' disease mouse model. Conditions: 1 mg/kg IV 4-weekly, after start of therapy (week 11). As for the experimental part:
In FIG. 5 the effects of peptide therapy on serum thyroxin levels were evaluated. The measurements were carried out in Ad-TSHR-immunized mice treated by either 4-weekly injections with vehicle (0.9% NaCl, “Graves' no therapy”, n=25 mice), or administrations of 1 mg/kg body weight of peptide of the invention 836 (12 mice), or of peptide 829 (13 mice), or TSHR-Fc (18 mice), or of control peptide 835 (13 mice). In addition, age-matched immunologically naïve unimmunized mice (“healthy”, 19 animals) were investigated. Data are represented as means±SEM. Significance over time was tested by analysis of variance (ANOVA) of groups at given time points, and controlled by ANOVA for repeated measurements within one group, followed by LSD post-hoc testing. *p<0.05, and **p<0.005, compared to the TSHR-immunized group treated with only NaCl (“Graves' no therapy”).
(§1) The study protocol used three 3-weekly immunizations (“initiation”) and followed by a “maintenance” phase with further regular 4-weekly boosts until the 9th immunisation, as described before (22). Mice were randomly assigned to therapeutic groups. Therapy (either 1 mg/kg body weight peptides or 0.9% NaCl vehicle control) was given 1 week after the 4th immunization by IV injection into a tail vein, and then continued at 4-weekly intervals, as described before for the treatment of anti-β1AR (16). The fusion protein TSHR-Fc was given IV at identical times at doses of 1 mg/kg, but had to be applied together with the histamine receptor blocker clemastin (Tavegil®) at a dose of 0.02 mg per mouse (25 g body weight) to avoid clinical symptoms of allergic reaction, which had been observed in initial pilot studies of TSHR-Fc administration in mice.
Total thyroxine (T4) was measured by immunoassay kit (#T4044T-100, Calbiotech Inc, Austin, Calif.) in duplicate determination.

The subject of experiment [2] is Ad-TSHR-immunized mice. Put plainly: thyroid size at end of experiment in Graves' disease mouse model. Conditions: 1 mg/kg IV 4-weekly. As for the experimental part: Representative images are shown. In FIG. 4B, the effects of peptide therapy on thyroid sizes were investigated at the end of the experiment. The measurements were carried out in Ad-TSHR-immunized mice treated by either 4-weekly injections with vehicle (0.9% NaCl, “Graves' no therapy”, n=25 mice), or administrations of 1 mg/kg body weight of peptide of the invention 836 (12 mice), or of peptide 829 (13 mice), or of TSHR-Fc (18 mice), or of control peptide 835 (13 mice). In addition, age-matched immunologically naïve unimmunized mice (“healthy”, 19 animals) were investigated. The mean thyroid sizes in mm^3 are shown with SEM. Differences between groups were tested by AVOVA followed by post hoc LSD testing. ** indicates statistical significance (p<0.001) compared to the TSHR-immunized group treated with only NaCl (“Graves' no therapy”).
as §1
After euthanasia, dissection of the thyroid glands was performed under a stereomicroscope, as described before (22). Briefly, cross cuts at the level above the larynx and below the seventh cartilage ring were made and the glands with the tracheae and oesophagi were removed from the necks. Tissue blocks were kept in 4% neutral para-formaldehyde (PFA), washed in PBS 3 times and embedded in optimum cutting temperature (OCT) formulation (Tissue-Tek® O.C.T.™ compound, VWR Chemicals, Leuven, Belgium). Consecutive 5 μm-thick cross sections were cut at a fixed distance of 500 μm using a Leica microtome CM 1850 Cryostat (temperature at −19° C.) and mounted on Thermo Polysine slides (Thermo Scientific, Cat J2800AMNZ). […] Thyroid volumes (mm^3) were calculated from the sum of the areas of each section over the whole cutting region. Myocardial volumes (mm^3) were calculated in a similar way as described for thyroid glands from the sum of the areas of each section over whole cutting region (5 to 6 slides, depending on respective size of the hearts). […]

For experiment [3], the system named is Ad-TSHR-immunized mice. The experiment in a line: ECG heart rates in Graves' disease mouse model. Particulars: 1 mg/kg IV 4-weekly, ECG under anaesthesia. On the procedure: (§2) In FIG. 7 the effect of the peptide therapy on heart rates at various times during the experiment (A), and on heart weights (B) and cardiac ventricular volumes (C) at the end of the experiment were evaluated in all animals. The measurements were carried out in Ad-TSHR-immunized mice treated by either 4-weekly injections with vehicle (0.9% NaCl, “Graves' no therapy”, n=25 mice), or administrations of 1 mg/kg body weight of peptide of the invention 836 (12 mice), or of peptide 829 (13 mice), or TSHR-Fc (18 mice). In addition, age-matched immunologically naïve unimmunized mice (“healthy”, 19 animals) were investigated. Data are represented as mean±SEM. Significance over time was tested by analysis of variance (ANOVA) of groups at given time points, and controlled by ANOVA for repeated measurements within one group, followed by LSD post-hoc testing. *p<0.05, and **p<0.005, compared to the TSHR-immunized group treated with only NaCl (“Graves' no therapy”).
When mice were subjected to anaesthesia for immunisation, their heart function was monitored with an electrocardiogram (ECG amplifier module, Harvard Apparatus, Hugo Sachs electronics) and recorded with a special software, which allows to determine the heart rate from the ECG reading (Haemodyn, Hugo Sachs electronics). ECG was also performed in anaesthesia before animals were euthanized for histological exam at the end of the study.

Experiment [4] has as its system Ad-TSHR-immunized mice. The experiment in a line: heart weights upon necropsy. Conditions: 1 mg/kg IV 4-weekly, necropsy at end of experiment. On the procedure:
as §2
Due to unavailability of some fine histological sections, analysis of this parameter in mice treated with other peptides could unfortunately not be completed.

Peptide text beside a SMILES is read from it.

For the molecule `CC[C@H](C)[C@@H]1NC(=O)[C@H](C(C)C)NC(=O)[C@H]([C@@H](C)O)NC(=O)[C@H](CC(C)C)NC(=O)[C@H](Cc2ccc(O)cc2)NC(=O)[C@H](CCCCN)NC(=O)[C@H](CC(N)=O)NC(=O)[C@H](CCCCN)NC(=O)[C@H](CC(N)=O)NC(=O)[C@H](CC(C)C)NC(=O)[C@H](Cc2ccc(O)cc2)NC(=O)[C@H](C(C)C)NC(=O)[C@H](C)NC(=O)[C@H](CC(=O)O)NC(=O)[C@H](CC(C)C)NC(=O)[C@H](CCCCN)NC(=O)[C@H]([C@@H](C)O)NC(=O)CNC(=O)[C@H](CC(N)=O)NC(=O)[C@H](Cc2ccccc2)NC(=O)[C@H](C)NC(=O)[C@H](Cc2ccc(O)cc2)NC(=O)CNC(=O)[C@H](CC(=O)O)NC1=O` [peptide 836] (cyclo(GYAFNGTKLDAVYLNKNKYLTVID)), in the experiment on Ad-TSHR-immunized mice [1], the “serum thyroxin (T4) levels” value was “progressively decreasing T4 levels, which consecutively reverted to normal values”. Also, the thyroid size entry in the experiment with Ad-TSHR-immunized mice [2] is “decreased thyroid sizes”. For the same molecule, in the experiment with Ad-TSHR-immunized mice [3], the heart rate entry was “no further increase, and significantly decreased resting heart rates at later time points”. Further, in the experiment with Ad-TSHR-immunized mice [4], the heart weights result is on record as “significantly reduced heart weights”.
For the molecule SPPCECHQEEDFRVTCKDIQRIPS [peptide 829], the “serum thyroxin (T4) levels” value with Ad-TSHR-immunized mice [1] is given as “a trend which did not reach statistical significance”. The thyroid size entry in the experiment with Ad-TSHR-immunized mice [2] is “a trend which did not reach statistical significance”. Besides, in the experiment with Ad-TSHR-immunized mice [3], the heart rate entry is “a trend which did not reach statistical significance”. Also, in the experiment with Ad-TSHR-immunized mice [4], the heart weights entry is “trends towards reduced heart weights which did not reach statistical significance”.
Consider “TSHR-Fc: fusion protein: first 289 amino acids of human TSH receptor (A-subunit), GGR linker and Fc portion of human IgG2”, for which, in the experiment with Ad-TSHR-immunized mice [1], the “serum thyroxin (T4) levels” value is listed as “progressively decreasing T4 levels, which consecutively reverted to normal values”. In the experiment with Ad-TSHR-immunized mice [2], the thyroid size result was “decreased thyroid sizes”. Moreover, in the experiment with Ad-TSHR-immunized mice [3], the heart rate entry is “no further increase, and significantly decreased resting heart rates at later time points”. Further, in the experiment on Ad-TSHR-immunized mice [4], the heart weights entry is “trends towards reduced heart weights which did not reach statistical significance”.
